According to patent US20110009435A1, “HETERO BICYCLIC CARBOXAMIDE DERIVATIVES AND THEIR PHARMACEUTICAL USE AND COMPOSITIONS” (Pfizer, Inc., priority 2007, published 2011):

Target: T1, Human recombinant MMP-14 (Homo sapiens, UniProt P50281)
T1 construct: The MMP-14 cDNA may be used to express the catalytic domain enzyme in E. coli inclusion bodies; made in house
Experiment: In vitro MMP inhibition assay, MMP-14 catalytic domain (fluorogenic peptide substrate cleavage, Ki)
Assay type: biochemical
Details: human MMP-14, catalytic domain (CD); read-out: hMMP Ki 14/CD
Procedure: Matrix Metalloproteinase inhibitor compounds were analyzed in in vitro MMP Inhibition assays to determine their ability to inhibit the MMP cleavage of peptide substrates. Inhibition constants (Ki) were calculated from the assayed compound-MMP interactions.
Human recombinant MMP-1, MMP-2, MMP-3, MMP-7, MMP-9, MMP-12, MMP-13, MMP-14 and MMP-15 were used in these assays. The enzymes are prepared following known laboratory procedures. Protocols for the preparation and use of these enzymes are available in the scientific literature. See, e.g., Enzyme Nomenclature (Academic Press, San Diego, Calif., 1992) and the citations therein. See also Frije et al., J. Biol. Chem., 26(24), 16766-73 (1994).
The MMP-14 cDNA may be used to express the catalytic domain enzyme in E. coli inclusion bodies. Then the enzyme is solubilized in urea, purified on a preparative […] reverse phase HPLC column, and refolded in the presence of zinc acetate and purified for use.
The fluorogenic, methoxycoumarin-containing polypeptide substrate MCA-ArgProLeuGlyLeuDpaAlaArgGluArgNH2 was used as the MMP substrate in the MMP inhibition assays for human recombinant MMP-1, MMP-2, MMP-7, MMP-9, MMP-12, MMP-13, MMP-14 and MMP-15. Here, “MCA” is 7-methoxycoumarin-4-yl acetyl and “Dpa” is 3-(2,4-dinitrophenyl)-L-2,3-di-aminopropionyl group. In the absence of MMP inhibitory activity, the substrate is cleaved at the Gly-Leu peptide bond. The cleavage separates the highly fluorogenic peptide from the 2,4-dinitrophenyl quencher, resulting in an increase of fluorescent intensity.
For the human MMP-1, MMP-2, MMP-7, MMP-9, MMP-12, MMP-13, MMP-14 and MMP-15 assays, dilutions of the inhibitors (or salts thereof) were prepared in 100% dimethyl sulfoxide (DMSO). The stock solutions were diluted in Buffer A (100 mM Tris-HCl, 100 mM NaCl, 10 mM CaCl2, 0.005% polyoxyethylene 23 lauryl ether, pH 7.5) to obtain solutions with different compound concentrations, i.e., assay solutions with different concentrations of the assayed MMP inhibitory compound in 1% DMSO. The experiment controls contained the same amount of Buffer A/DMSO as the assayed sample, but contained no inhibitor.
To determine Ki, the inhibitor samples are incubated at room temperature for 1 hr in the presence of enzyme and then 4 μM of appropriate MMP substrate was added, and samples were analyzed on a Tecan SpectraFlour Plus plate reader. The excitation wavelength is 330 nm, and the emission (fluorescence) wavelength is 420 nm. In the absence of MMP inhibitory activity, the substrate is cleaved at the Gly-Leu bond resulting in an increase of relative fluorescence. Inhibition is observed as a reduced rate of increase in relative fluorescence.
The inhibitors are analyzed using a single low enzyme concentration with a single substrate concentration fixed at or below the Km. This protocol is a modification of method by Knight et al., FEBS Lett., 296(3), 263-266 (1992). Apparent inhibitory constants are determined by non-linear regression of reaction velocity as a function of inhibitor and enzyme concentration using Morrison's equation, as described by Kuzmic, Anal. Biochem. 286, 45-50 (2000). Modifications were made in the non-linear regression method to allow a common control reaction rate and effective enzyme concentration to be shared between all dose-response relationships on a given assay plate. […]

COc1cccc(CNC(=O)c2nc3ccc(F)c(OCCC4CCN(C(=O)CO)CC4)c3c(=O)[nH]2)c1 [Example 34, 6-fluoro-5-[2-(1-glycoloylpiperidin-4-yl)ethoxy]-N-(3-methoxybenzyl)-4-oxo-3,4-dihydroquinazoline-2-carboxamide]
Ki: > 10 µM
